Results as given in ChEMBL document CHEMBL1156369, “New acetophenone glucosides isolated from extracts of Helichrysum italicum with antiinflammatory activity” (2001).
Calls of active or inactive are those of the source. The calls are words filed in the database; no cut-off is given here.

These compounds were tested on Mus musculus (assay: Antiinflammatory activity against TPA-induced ear edema in mouse at 0.5 mg/ear topically).
Format: functional

**Q.** `CC(=O)c1ccc(O[C@@H]2O[C@H](CO)[C@@H](O)[C@H](O)[C@H]2O)c(CC=C(C)C)c1` was tested. Which Activity did it give?
**A.** inactive

**Q.** How did the Activity turn out when `C=C(CO[C@@H]1O[C@H](CO)[C@@H](O)[C@H](O)[C@H]1O)[C@@H]1Cc2cc(C(C)=O)ccc2O1` was run?
**A.** inactive

**Q.** With `C=C(CO)[C@@H]1Cc2cc(C(C)=O)ccc2O1` [BITALIN A] as the compound, how does the Activity read?
**A.** 50%

**Q.** Which Activity does the source give for `C=C(C)C(O)Cc1cc(C(C)=O)ccc1O` (stereo not drawn) here?
**A.** 68%

**Q.** For `CC(=O)c1ccc(O[C@@H]2O[C@H](CO)[C@@H](O)[C@H](O)[C@H]2O)c(CCO)c1`, which Activity is on record?
**A.** inactive

**Q.** With `Cc1occc(=O)c1O[C@@H]1O[C@H](CO)[C@@H](O)[C@H](O)[C@H]1O` as the compound, how does the Activity read?
**A.** inactive

**Q.** How did the Activity turn out when `CC(=O)c1ccc(O)c(CC=C(C)C)c1` was run?
**A.** inactive

Each compound was assayed on Mus musculus (assay: Antiinflammatory activity against TPA-induced ear edema in mouse assessed per ear drug treated topically).
Format: functional

**Q.** For `C=C(C)C(O)Cc1cc(C(C)=O)ccc1O` (stereo not drawn), which ID50 is on record?
**A.** 0.63 µmol
